Measured values published in patent US20240058316A1, “PRODRUG OF A PHENOLIC TRPV1 AGONIST FOR THE TREATMENT OF PAIN” (Concentric Analgesics, Inc., priority 2020, published 2024).

Columns and labels:
[1] = tested on: postoperative pain after a bunionectomy; test: Phase 2 randomized, double-blind, placebo-controlled study in subjects undergoing bunionectomy; format: in vivo, human; conditions: for reduction in opioid consumption: FIG. 3
Method: Compound 1 was investigated as a potential therapy for treatment of pain following bunionectomy. Compound 1 was administered (injected and instilled) directly into the postoperative wound during the surgery. This study is a follow-on placebo-controlled efficacy and safety study which includes assessments of wound healing and a PK study in enrolled subjects.
• This trial was designed to determine the efficacy of study treatment (Compound 1 vs. placebo) infiltrated/instilled during surgery in treating postoperative pain after a bunionectomy in the setting of multimodal analgesia in addition to a Mayo block with bupivacaine in the first 24 h (FIG. 1).
Protocol: This Phase 2, multi-center, randomized, double-blind, placebo-controlled, parallel design study evaluated a single dose of one of three Compound 1 dose groups vs. placebo injected during an elective BUNX with a multimodal analgesia regimen including an NSAID and regional Mayo block with bupivacaine. The study was conducted in two parts: • Inpatient period which continued to 96h after completion of study treatment injection (TO) or T96h. • Outpatient period which began on discharge from the inpatient unit through various follow visits to D29±2 (W4) after surgery, or if necessary for ongoing safety assessments, to D36±2 (W5).
Subjects underwent unilateral transpositional first metatarsal osteotomy for the correction of hallux valgus deformity (bunionectomy or BUNX). The surgery was performed under light to moderate sedation anesthesia (what constitutes this level of sedation and the additional anesthetic medications used per discretion of the anesthesiologist). In accordance with standard of care, light to moderate sedation was supplemented with a Mayo block to produce surgical anesthesia and postoperative analgesia. After administering light to moderate sedation, but prior to surgery, performed a Mayo block by infiltrating 0.5% bupivacaine hydrochloride (up to 30 mL total volume, 150 mg) at least 3 cm proximal to the “surgical site”. The Mayo block was performed at 15-30 minutes prior to study treatment dosing. “Surgical site” is defined as the area extending approximately 2-3 cm in all directions (lateral/medial/proximal/distal) from the incision site and surrounding tissues which may be affected by the infiltration of study treatment.
After the surgery, subjects were monitored for 96 hours in an inpatient unit. Safety and efficacy evaluations were performed. […] Subjects were required to meet certain pre-specified criteria prior to discharge.
T0 is the time that the study treatment injection/instillation is completed.
Following surgery, subjects were transferred to the appropriate recovery unit where they underwent various assessments over the next 96 hours (end of surgery [EOS] to T96h). In addition to the Mayo block noted above, a multimodal analgesia regimen included the following during the immediate postoperative period: • Ketorolac 30 mg IV (a non-steroidal anti-inflammatory drug (NSAID) to be administered intraoperatively before the end of surgery. Per investigator discretion, adjust the dose as necessary for subject age and medical condition. • Acetaminophen 1000 mg IV to be administered intraoperatively before the end of surgery.
After the non-opioid analgesics noted above has been administered, no additional NSAIDs or acetaminophen were administered during the inpatient phase of the study (through T96h). Additionally, the following rescue medication was able to be administered for any moderate to severe breakthrough pain during the inpatient period: • PO oxycodone 5 mg prn q2h in the first 12 hours after surgery for moderate or severe pain (≥4) as reported by subjects using the 0 to 10 numerical rating scale of current pain intensity (NRS). • PO oxycodone 5 mg prn q4h from 12 to 96 hours after surgery for moderate or severe pain (NRS≥4).
After surgery, subjects were monitored for 96 hours (through T96h) at the trial site as an inpatient.

[2] = tested on: pain following TKA surgery; test: Phase 1/2 randomized, double-blind, placebo-controlled study in patients undergoing total knee arthroplasty (TKA); format: in vivo, human
Method: • This is a two-part, Phase 1/2, randomized, double-blind, placebo-controlled study. In Part A, 2 or more exploratory sequential dose-escalation cohorts will be evaluated, each with administration of a single dose of Compound 1 or placebo infiltrated/instilled during surgery in patients undergoing TKA (FIG. 5).
• 1. Cohort #1: total N=8 patients randomized 3:1 Compound 1 36 mg in 120 mL (0.3 mg/mL) or placebo 120 mL • 2. Cohort #2: total N=8 patients randomized 3:1 Compound 1 60 mg in 120 mL (0.5 mg/mL) or placebo 120 mL • 3. Cohort #2: total N=8 patients randomized 3:1 Compound 1 90 mg in 120 mL (0.75 mg/mL) or placebo 120 mL
• 1. Cohort #1: total N=˜97 patients randomized 2:1 Compound 1 36 mg in 120 mL (0.3 mg/mL) or placebo 120 mL • 2. Cohort #2: total N=˜97 patients randomized 2:1 Compound 1 60 mg in 120 mL (0.5 mg/mL) or placebo 120 mL
Subjects underwent unilateral total knee arthroplasty (replacement) (TKA). […]
Following surgery, patients were transferred to the PACU where they underwent an assessment of safety and efficacy over the next 96 (±4) hours. T0 is the time of admission into the PACU (as recorded in notes by the PACU nurse). The schedule of assessments was as follows: • Patients with inadequately controlled pain may request rescue at any time during T0 to D5; however, patients will be encouraged to receive rescue medication only with an NRS ≥4. • Pain intensity (assessed with NRS). • During the inpatient stay, NRS at rest beginning with the PACU admission was able to be assessed once the patient is awake. […] Scheduled NRS scores must be recorded regardless of timing of pre-rescue medication NRS scores and administration of rescue medication. The actual time of all NRS scores must be recorded, i.e., not the nominal time. • During the inpatient stay, evoked NRS twice daily after physical therapy (most preferred) or ambulation for approximately 10 yards (preferred) or transfers to/from bed or wheelchair. […]

[3] = tested on: pain in subjects undergoing surgery to repair a ventral hernia; test: Randomized, double-blind, placebo-controlled study in subjects undergoing ventral hernia repair (laparotomy); format: in vivo, human
Method: Using the general delivery technique identified in Part A, this dose, concentration and volume will be assessed compared to a placebo in a pilot, double-blind, randomized, parallel-group design (see Figure). […] Study treatment was administered intraoperatively as a single administration via infiltration/instillation into the “surgical site” prior to wound closure. In general, the intent was to deliver local anesthetic into the surgical site “on the way in” (upon adequate exposure of and prior to incision/dissection of target tissues). […] The “surgical site” is defined as the area extending approximately at least 2-3 cm in all directions (lateral/medial/proximal/distal/deep) from the margins of substantially all tissue traumatized by the surgical procedure, i.e., all tissue dissected, cut, electrocauterized (bovied), sutured or tacked, including both deep and superficial areas. The surgical site include sthe full area of surgical mesh placement. […] The surgery was performed under general anesthesia with the following guidelines: • Inhaled anesthetic or propofol infusion with or without nitrous oxide (N20). • Adequate optional premedication typically with midazolam (up to 5 mg), fentanyl (up to 100 mcg), more can be given if indicated • Supplemental anesthesia and sedation will be per institutional guidelines Intra-operative titration of intravenous (IV) fentanyl, including during emergence, will be per institutional guidelines. In addition, patients received bupivacaine hydrochloride (BupiHCl) 175 mg delivered as follows: • Prior to start of surgery under ultrasound guidance: • BupiHCl 0.25%, 30 mL (75 mg) diluted with 10 mL of normal saline to a volume of 40 mL delivered as a rectus block with 20 mL on each side. • Immediately before/after surgical incision: • BupiHCl 0.25%, 40 mL (100 mg), may be diluted in up to 110 mL of normal saline to a total volume of not more than 150 mL: Infiltration of abdominal wall, anterior rectus abdominis sheath, posterior rectus abdominis sheath, other fascia, peritoneum (including circumferential areas of intended mesh placement) Standard supplemental anesthetic and perioperative care was provided per institutional guidelines. This typically included (but not be limited to) steps to ensure preservation of intraoperative normothermia (including the use of preoperative and intraoperative forced-air warming) and deep venous thrombosis prophylaxis. Patients received general anesthesia and bilateral rectus blocks. […]

[4] = Aqueous solubility (descriptive statement); format: physicochemical
[5] = background statement; cited from earlier work
[6] = bunionectomy, 4.2 mg (0.3 mg/mL)

**Q.** What does the source list for `CNCC1CCCCN1C(=O)Oc1ccc(CNC(=O)CCCC/C=C/C(C)C)cc1OC` (stereo not shown) [Compound 1, (E)-2-methoxy-4-((8-methylnon-6-enamido)methyl)phenyl 2-((methylamino)methyl)piperidine-1-carboxylate]?
**A.** pain reduction ([1]; bunionectomy, 0.15 mg/mL (2.1 mg), FIG. 2): trend in pain reduction; reduction in opioid consumption ([1]; bunionectomy, 2.1 mg (0.15 mg/mL)): statistically significant reduction in opioid consumption; reduction in pain [1, 6]: statistically significant reduction in pain; reduction in opioid consumption [1, 6]: statistically significant reduction in opioid consumption; persistence of analgesic effect ([1]; bunionectomy, 4.2 mg, FIG. 4): ≥ 15 days; dose of maximum analgesic effect ([1]; bunionectomy, concentration of 0.3 mg/mL): 4.2 mg; reductions of pain and opioid consumption ([1]; single administration during surgery, bunionectomy patients): long lasting reductions of pain and opioid consumption; reductions in pain ([2]; 36 mg (0.3 mg/mL), FIG. 7): long lasting reductions in pain; reduction in opioid consumption ([2]; 36 mg (0.3 mg/mL), FIG. 8): significant reduction in opioid consumption; analgesic activity ([2]; 60 mg (0.5 mg/mL), compared with 36 mg): lower analgesic activity which was of a shorter duration; reductions in pain ([3]; 36 mg (0.3 mg/mL)): long lasting reductions in pain; reduction in pain at rest compared to placebo ([3]; 36 mg (0.3 mg/mL), FIG. 9): 21%; reduction in pain with coughing compared to placebo ([3]; 36 mg (0.3 mg/mL), FIG. 9): 46%; reduction in opioid consumption compared to placebo ([3]; FIG. 9): 26%; water solubility [4]: highly water-soluble

**Q.** For `COc1cc(CNC(=O)CCCC/C=C/C(C)C)ccc1O` [Capsaicin], which “solubility in aqueous media or local anesthetic solutions” value [5] is on record?
**A.** The value was “virtually insoluble”.
